As usually defined, the EC50 is the midpoint of the concentration-response curve.

We go through 22 compounds from US20220162191A1, “SMALL MOLECULE MODULATORS OF IL-17” (LEO PHARMA A/S, priority 2019, published 2022).

The target of the test is T1, human IL-17AA (Homo sapiens, UniProt Q16552).
T1 construct: host or cells: HEK (human embryonic kidney) cells
T1 sequence (Q16552 24-155) 1: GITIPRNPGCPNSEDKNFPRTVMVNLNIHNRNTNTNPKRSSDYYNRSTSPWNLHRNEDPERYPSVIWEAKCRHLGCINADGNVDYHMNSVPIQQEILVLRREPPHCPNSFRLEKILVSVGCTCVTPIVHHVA
T1 sequence (Q16552 24-155) 2: T1 sequence (Q16552 24-155) 1
Kind of test: IL-8 release assay in human epithelial keratinocytes adult (HEKa). The format is cell-based. As to conditions: 3 ng/ml human IL-17AA + 10 ng/ml human TNFalpha, 68-72 h, IL-8 by HTRF, read-out: Rel EC50 L-8 release assay. Put shortly: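 Adult human keratinocytes in Epilife with HKGS minus hydrocortisone, treated with compound then stimulated with final 3 ng/ml HEK-derived human IL-17AA plus 10 ng/ml TNF-alpha for 68–72 h at 37 °C; TNF-alpha alone defines 100% inhibition. Secreted IL-8 by HTRF; relative IC50 and Emax from four-parameter fits.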
As to `CC(C)n1cc(-c2ccc(Cl)c(C[C@H](NC(=O)[C@H]3CC3(F)F)C(=O)Nc3ccc(-c4nncn4C)cc3)c2)ccc1=O` [Example 288, (1R)-N-[(1S)-1-[[2-chloro-5-(1-isopropyl-6-oxo-3-pyridyl)phenyl]methyl]-2-[4-(4-methyl-1,2,4-triazol-3-yl)anilino]-2-oxo-ethyl]-2,2-difluoro-cyclopropanecarboxamide], the EC50 was > 1000 nM.
For `CC(C)n1cc(-c2ccc(Cl)c(C[C@H](NC(=O)C3CC(F)(F)C3)C(=O)Nc3ccc(-c4nncn4C)cc3)c2)ccc1=O` [Example 291, N-[(1S)-1-[[2-chloro-5-(1-isopropyl-6-oxo-3-pyridyl)phenyl]methyl]-2-[4-(4-methyl-1,2,4-triazol-3-yl)anilino]-2-oxo-ethyl]-3,3-difluoro-cyclobutanecarboxamide] the value was > 1000 nM; for `CC(C)n1cc(-c2ccc(Cl)c(C[C@H](NC(=O)C3CCC3)C(=O)Nc3ccc(-c4nncn4C)cc3)c2)ccc1=O` [Example 293, N-[(1S)-1-[[2-chloro-5-(1-isopropyl-6-oxo-3-pyridyl)phenyl]methyl]-2-[4-(4-methyl-1,2,4-triazol-3-yl)anilino]-2-oxo-ethyl]cyclobutanecarboxamide], > 1000 nM; for `Cn1cnnc1-c1ccc(NC(=O)C(Cc2cc(-c3ccc(O)c(C(=O)N4CCOCC4)c3)ccc2Cl)NC(=O)c2ccnn2C)cc1` (stereo not shown) [Example 296, N-[1-[[2-chloro-5-[4-hydroxy-3-(morpholine-4-carbonyl)phenyl]phenyl]methyl]-2-[4-(4-methyl-1,2,4-triazol-3-yl)anilino]-2-oxo-ethyl]-2-methyl-pyrazole-3-carboxamide], > 1000 nM.
As for `CC(C)n1cc(-c2ccc(Cl)c(CC(NC(=O)c3ccnn3C)C(=O)Nc3ccc(-c4ncnn4C)cc3)c2)ccc1=O` (stereo not shown) [Example 301, N-[1-[[2-chloro-5-(1-isopropyl-6-oxo-3-pyridyl)phenyl]methyl]-2-[4-(2-methyl-1,2,4-triazol-3-yl)anilino]-2-oxo-ethyl]-2-methyl-pyrazole-3-carboxamide], the figure is > 1000 nM; as for `Cc1nocc1C(=O)NC(Cc1cc(-c2ccnc(C(=O)N(C)C3CC3)c2)ccc1Cl)C(=O)Nc1ccc(-c2nncn2C)cc1` (stereo not shown) [Example 306, N-[1-[[2-chloro-5-[2-[cyclopropyl(methyl)carbamoyl]-4-pyridyl]phenyl]methyl]-2-[4-(4-methyl-1,2,4-triazol-3-yl)anilino]-2-oxo-ethyl]-3-methyl-isoxazole-4-carboxamide], > 1000 nM; as for `CC(C)n1cc(-c2ccc(Cl)c(CC(NC(=O)C3(F)CC3)C(=O)Nc3ccc(-c4nncn4C)cc3)c2)cc(C(F)(F)F)c1=O` (stereo not shown) [Example 307, N-[1-[[2-chloro-5-[1-isopropyl-6-oxo-5-(trifluoromethyl)-3-pyridyl]phenyl]methyl]-2-[4-(4-methyl-1,2,4-triazol-3-yl)anilino]-2-oxo-ethyl]-1-fluoro-cyclopropanecarboxamide], > 1000 nM.
For `Cn1cnnc1-c1ccc(NC(=O)C(Cc2cc(-c3ccc(C#N)cc3)ccc2Cl)NC(=O)c2ccnn2C)cc1` (stereo not shown) [Example 308, N-[1-[[2-chloro-5-(4-cyanophenyl)phenyl]methyl]-2-[4-(4-methyl-1,2,4-triazol-3-yl)anilino]-2-oxo-ethyl]-2-methyl-pyrazole-3-carboxamide] the value was > 1000 nM; for `Cc1cc(-c2ccc(Cl)c(CC(NC(=O)c3ccnn3C)C(=O)Nc3ccc(-c4nncn4C)cc3)c2)ccc1C#N` (stereo not shown) [Example 309, N-[1-[[2-chloro-5-(4-cyano-3-methyl-phenyl)phenyl]methyl]-2-[4-(4-methyl-1,2,4-triazol-3-yl)anilino]-2-oxo-ethyl]-2-methyl-pyrazole-3-carboxamide], > 1000 nM; for `Cc1n[nH]c(C)c1-c1ccc(NC(=O)[C@H](Cc2cc(-c3cccc(CN4C[C@H]5C[C@@H]4CN5)c3)ccc2Cl)NC(=O)C2(F)CC2)cc1` [Example 310, N-[(1S)-1-[[2-chloro-5-[3-[[(1R,4R)-2,5-diazabicyclo[2.2.1]heptan-2-yl]methyl]phenyl]phenyl]methyl]-2-[4-(3,5-dimethyl-1H-pyrazol-4-yl)anilino]-2-oxo-ethyl]-1-fluoro-cyclopropanecarboxamide], 100 to 1000 nM.
For `Cc1n[nH]c(C)c1-c1ccc(NC(=O)[C@H](Cc2cc(N3CCOCC3)ccc2Cl)NC(=O)c2ccnn2C)cc1` [Example 311, N-[(1S)-1-[(2-chloro-5-morpholino-phenyl)methyl]-2-[4-(3,5-dimethyl-1H-pyrazol-4-yl)anilino]-2-oxo-ethyl]-2-methyl-pyrazole-3-carboxamide], the EC50 is > 1000 nM.
As for `COCCOCCn1cc(-c2cccc(-c3ccc(Cl)c(CC(NC(=O)c4ccnn4C)C(=O)Nc4ccc(-c5c(C)n[nH]c5C)cc4)c3)c2)nn1` (stereo not shown) [Example 312, N-[1-[[2-chloro-5-[3-[1-[2-(2-methoxyethoxy)ethyl]triazol-4-yl]phenyl]phenyl]methyl]-2-[4-(3,5-dimethyl-1H-pyrazol-4-yl)anilino]-2-oxo-ethyl]-2-methyl-pyrazole-3-carboxamide], the EC50 lay within 100 to 1000 nM.
For `COCCOCCn1cc(-c2ccc(-c3ccc(Cl)c(CC(NC(=O)c4ccnn4C)C(=O)Nc4ccc(-c5c(C)n[nH]c5C)cc4)c3)cc2)nn1` (stereo not shown) [Example 313, N-[1-[[2-chloro-5-[4-[1-[2-(2-methoxyethoxy)ethyl]triazol-4-yl]phenyl]phenyl]methyl]-2-[4-(3,5-dimethyl-1H-pyrazol-4-yl)anilino]-2-oxo-ethyl]-2-methyl-pyrazole-3-carboxamide] the value was < 100 nM; for `Cc1n[nH]c(C)c1-c1ccc(NC(=O)[C@H](Cc2cc(-c3ccnc(N4CCSCC4)n3)ccc2Cl)NC(=O)C2(F)CC2)cc1` [Example 314, N-[(1S)-1-[[2-chloro-5-(2-thiomorpholinopyrimidin-4-yl)phenyl]methyl]-2-[4-(3,5-dimethyl-1H-pyrazol-4-yl)anilino]-2-oxo-ethyl]-1-fluoro-cyclopropanecarboxamide], < 100 nM; for `Cc1n[nH]c(C)c1-c1ccc(NC(=O)[C@H](Cc2cc(-c3ccnc(N4CC[S+]([O-])CC4)n3)ccc2Cl)NC(=O)C2(F)CC2)cc1` [Example 315, N-[(1S)-1-[[2-chloro-5-[2-(1-oxidothiomorpholin-1-ium-4-yl)pyrimidin-4-yl]phenyl]methyl]-2-[4-(3,5-dimethyl-1H-pyrazol-4-yl)anilino]-2-oxo-ethyl]-1-fluoro-cyclopropanecarboxamide], < 100 nM.
For `Cc1n[nH]c(C)c1-c1ccc(NC(=O)[C@H](Cc2cc(-c3ccnc(N4CCC5(COC5)C4)n3)ccc2Cl)NC(=O)C2(F)CC2)cc1` [Example 316, N-[(1S)-1-[[2-chloro-5-[2-(2-oxa-7-azaspiro[3.4]octan-7-yl)pyrimidin-4-yl]phenyl]methyl]-2-[4-(3,5-dimethyl-1H-pyrazol-4-yl)anilino]-2-oxo-ethyl]-1-fluoro-cyclopropanecarboxamide] the value was < 100 nM; for `Cc1n[nH]c(C)c1-c1ccc(NC(=O)[C@H](Cc2cc(-c3ccnc(N4CCC5(CC4)COC5)n3)ccc2Cl)NC(=O)C2(F)CC2)cc1` [Example 317, N-[(1S)-1-[[2-chloro-5-[2-(2-oxa-7-azaspiro[3.5]nonan-7-yl)pyrimidin-4-yl]phenyl]methyl]-2-[4-(3,5-dimethyl-1H-pyrazol-4-yl)anilino]-2-oxo-ethyl]-1-fluoro-cyclopropanecarboxamide], < 100 nM; for `Cc1n[nH]c(C)c1-c1ccc(NC(=O)[C@H](Cc2cc(-c3ccnc(N4CC5COCC5C4)n3)ccc2Cl)NC(=O)C2(F)CC2)cc1` (stereo partly drawn) [Example 318, N-[(1S)-1-[[5-[2-(1,3,3a,4,6,6a-hexahydrofuro[3,4-c]pyrrol-5-yl)pyrimidin-4-yl]-2-chloro-phenyl]methyl]-2-[4-(3,5-dimethyl-1H-pyrazol-4-yl)anilino]-2-oxo-ethyl]-1-fluoro-cyclopropanecarboxamide], < 100 nM.
As for `Cc1n[nH]c(C)c1-c1ccc(NC(=O)[C@H](Cc2cc(-c3ccnc(N4CCCC5(COC5)C4)n3)ccc2Cl)NC(=O)C2(F)CC2)cc1` [Example 319, N-[(1S)-1-[[2-chloro-5-[2-(2-oxa-8-azaspiro[3.5]nonan-8-yl)pyrimidin-4-yl]phenyl]methyl]-2-[4-(3,5-dimethyl-1H-pyrazol-4-yl)anilino]-2-oxo-ethyl]-1-fluoro-cyclopropanecarboxamide], the figure is < 100 nM; as for `Cc1cnn(C)c1-c1ccc(NC(=O)[C@H](Cc2cc(-c3ccc(=O)n(C(C)C)c3)ccc2Cl)NC(=O)c2cnco2)cc1` [Example 321, N-[(1S)-1-[[2-chloro-5-(1-isopropyl-6-oxo-3-pyridyl)phenyl]methyl]-2-[4-(2,4-dimethylpyrazol-3-yl)anilino]-2-oxo-ethyl]oxazole-5-carboxamide], > 1000 nM; as for `Cc1cnn(C)c1-c1ccc(NC(=O)[C@H](Cc2cc(-c3ccc(=O)n(C(C)C)c3)ccc2Cl)NC(=O)c2cn[nH]c2)cc1` [Example 323, N-[(1S)-1-[[2-chloro-5-(1-isopropyl-6-oxo-3-pyridyl)phenyl]methyl]-2-[4-(2,4-dimethylpyrazol-3-yl)anilino]-2-oxo-ethyl]-1H-pyrazole-4-carboxamide], 100 to 1000 nM.
`Cc1cnn(C)c1-c1ccc(NC(=O)[C@H](Cc2cc(-c3ccc(=O)n(C(C)C)c3)ccc2Cl)NC(=O)c2ccno2)cc1` [Example 324, N-[(1S)-1-[[2-chloro-5-(1-isopropyl-6-oxo-3-pyridyl)phenyl]methyl]-2-[4-(2,4-dimethylpyrazol-3-yl)anilino]-2-oxo-ethyl]isoxazole-5-carboxamide]: the EC50 lay in the range of 100 to 1000 nM.
